The METLIN SMRT retention time set (Domingo-Almenara et al. 2019)

Experiment: gradient 5% acetonitrile 3 min, to 50% in 2 min, to 85% in 15 min, held 3 min, 100 µL/min
Conditions: column: Zorbax Extend-C18 2.1 x 50 mm; eluents: water / acetonitrile, 0.1% formic acid
How it was run: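 The system's dead and dwell volumes were 40 μL and 900 μL, with a Zorbax Extend-C18 column (2.1 × 50 mm, 1.8 μm) run at 100 μL/min in water and acetonitrile containing 0.1% formic acid each. Pure standards were analyzed in mixtures of ~100 molecules by HPLC–quadrupole time-of-flight mass spectrometry in positive and negative ionization mode. Retention time was assigned from computationally picked, manually inspected adduct peaks.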

| RP-LC retention time [s] | Compound |
| --- | --- |
| 749 | O=C1[C@H]2CN(Cc3ccc(Cl)cc3)C[C@H]2C(=O)N1CCc1ccccc1 |
| 716 | Cc1ccn2cc(-c3ccc(NC(=O)c4cccc(C(F)(F)F)c4)cc3)nc2n1 |
| 675 | O=C(c1cn(-c2cc(N3CCCCC3)ncn2)cn1)N1CCN(C(=O)c2ccco2)CC1 |
| 530 | COc1ccc(C2(C(=O)N3CCC(c4ncc(C)n4C(C)C)C3)CC2)cc1 (centres undefined) |
| 641 | O=C(NCc1ccccc1F)C1CCN(c2cncnc2N2CCCC2)CC1 |
| 702 | O=C(NCc1ccccc1)C1CCc2sc(C(=O)N3CCCC3)cc2C1 (centres undefined) |
| 744 | CC(C)Oc1ccc(CNC(=O)CCc2c(-c3ccc(Br)cc3)nc3ccccn23)cc1 |
| 850 | CN(C)c1ccc(Nc2nc(-c3ccc(O)cc3O)cs2)cc1 |
| 791 | CCOCCOC(=O)C1=C(C)NC2=C(C(=O)CC(C)(C)C2)C1c1cccc(OC)c1OC (centres undefined) |
| 778 | N#CCCc1ccc2c(c1)-c1[nH]c3ccc([N+](=O)[O-])cc3c1CC(=O)N2 |
| 1140 | O=C(NCc1ccc(F)cc1)C1CCCN(c2nc3ccccc3n(Cc3ccccc3)c2=O)C1 (centres undefined) |
| 765 | Cc1cccc(-c2nnc(C)c(N3CCCCC3C)n2)c1 (centres undefined) |
| 923 | CCc1ccc(Nc2nc(C(=O)NCc3ccc(C)o3)nc3ccccc23)cc1 |
| 1040 | CC(C)Cn1c(=O)c2ccccc2n(Cc2nc(-c3ccccc3)no2)c1=O |
| 796 | C[C@]12CC[C@H](O)CC1=CC[C@@H]1[C@@H]2CC[C@]2(C)c3[nH]ncc3C[C@@H]12 |
| 623 | O=C(Nc1cccnc1N1CCOCC1)C1CCC1 |
| 600 | Cc1cccc(-c2nc(Cn3ccnc3)no2)c1 |
| 929 | Cc1ccc(-c2noc(CNC(=O)C3CCC(=O)N3S(=O)(=O)c3ccc(C)cc3)n2)cc1 (centres undefined) |
| 941 | CCOc1ccc(-c2ccc(SCC)nn2)cc1 |
| 678 | COc1cc(=O)c(C(=O)Nc2ccc(S(N)(=O)=O)cc2)nn1-c1ccc(F)cc1 |
| 675 | COc1cc(NC(=O)Cc2cn3cc(Cl)ccc3n2)c(OC)cc1Cl |
| 596 | O=C1CCCc2cc(S(=O)(=O)NCC3CCN(Cc4ccccc4F)CC3)ccc2N1 |

| RP-LC retention time [s] | Compound |
| --- | --- |
| 590 | O=C(NC1CCCCC1)C1CCN(C(=O)c2cc(-c3ccncc3)n[nH]2)CC1 |
| 813 | CCOc1ccc(Nc2c(-c3ccc(N(C)C)cc3)nc3cnccn23)cc1 |
| 665 | Cc1cc(N2CCN(C(=O)Nc3ccc(F)c(Cl)c3)CC2)nc(N2CCOCC2)n1 |
| 1060 | O=C(C1CCC1)N1CCc2sc(S(=O)(=O)N3CCN(c4ccccc4)CC3)cc2C1 |
| 822 | CCOC(=O)c1ccc(NS(=O)(=O)c2cc(-c3c(CC)noc3NC(C)=O)ccc2C)cc1 |
| 1040 | COc1ccc(N2CC(c3nc(-c4ccc(Br)cc4)no3)CC2=O)c(OC)c1 (centres undefined) |
| 617 | O=C(Cc1cccc(F)c1)N1CCC(Nc2ncnc3c2CCC3)C1 (centres undefined) |
| 762 | COc1cc(NC(=O)C2CCN(S(=O)(=O)c3ccc4c(c3)CCCC(=O)N4)CC2)cc(OC)c1 |
| 817 | Cc1ccc(-n2nc3c(=O)n(CCCC(=O)NCc4ccc(C)o4)nc(C)c3c2C)cc1 |
| 620 | O=C(c1ccc2nc[nH]c2c1)N1CCCN(c2cc(-c3ccc(Cl)cc3)[nH]n2)CC1 |
| 629 | CC(=O)N1CCCC1c1nc(C2CN(C(=O)c3ccsc3)C2)no1 (centres undefined) |
| 854 | CCOc1ccccc1NC(=O)N1CCCC1c1cc(C)no1 (centres undefined) |
| 750 | O=C(NC1CC1)C1c2ccccc2CC(=O)N1Cc1ccccc1 (centres undefined) |
| 882 | COc1cc(OC)cc(C(=O)Nc2ccc3sccc3c2)c1 |
| 626 | COCCCN1CN=C(Nc2nc(C)c3ccccc3n2)NC1 |
| 1080 | COc1ccc(-n2ncc3c(=O)n(Cc4nc(-c5ccc(C)c(C)c5)no4)cnc32)cc1 |
| 718 | O=C1C(N2CCCN(S(=O)(=O)c3cccc(Cl)c3)CC2)CCN1Cc1ccccc1 (centres undefined) |
| 986 | O=c1c2cc(-c3ccc4c(c3)OCO4)nn2ccn1Cc1ccc(F)cc1 |
| 1120 | CCOc1ccc(-c2csc(NC(=O)CCc3ccccc3)n2)cc1 |
| 964 | Cc1cc(=O)n(CC(=O)Nc2ccccc2)c(-c2ccccc2)n1 |
| 593 | O=C(C1CCN(c2cncnc2N2CCCCC2)CC1)N1CCOCC1 |
| 721 | CCN(c1ccc(F)cc1)S(=O)(=O)c1cc2n(c1)CCCNC2=O |

| RP-LC retention time [s] | Compound |
| --- | --- |
| 642 | O=C(CSc1ncn[nH]1)Nc1ccc(Cl)cc1 |
| 646 | CCOC(=O)c1c(C)[nH]c(C)c1S(=O)(=O)N1CCC(C(=O)Nc2ccc(C)cn2)CC1 |
| 627 | NS(=O)(=O)c1ccc(CCNC(=O)CCCn2cccc2)cc1 |
| 1250 | COc1nc2ccccc2nc1N1CCCC(C(=O)Nc2ccc(Br)cc2)C1 (centres undefined) |
| 962 | Cc1cccc(OCc2nc(C)c(C(=O)N3CCC(C(N)=O)CC3)s2)c1 |
| 1060 | N#Cc1ccc(C(=O)N2CCCC2c2nc(-c3cccc(C(F)(F)F)c3)no2)cc1 (centres undefined) |
| 952 | COc1cc(OC)cc(C(=O)N2CCc3cn(C)c4cccc(c34)C2)c1 |
| 636 | CC1CCC(NC(=O)C2CCCN(C(=O)c3cc(-c4ccccn4)n[nH]3)C2)CC1 (centres undefined) |
| 754 | Cc1ccc2ncn3c(=O)n(CC(=O)Nc4ccc(C(C)C)cc4)nc3c2c1 |
| 901 | Cc1ccc(CNC(=O)C2(C)CN(S(C)(=O)=O)CC(=O)N2Cc2ccccc2Cl)cc1 (centres undefined) |
| 1180 | Cc1ccc(-c2nc(-c3ccc4c(c3)oc(=O)n4C)no2)cc1C |
| 1220 | Cc1ccc(C)c(-c2coc(-c3ccc(NC(=O)NCc4ccccc4)cc3)n2)c1 |
| 1130 | COC(=O)c1ccccc1Nc1c(-c2ccc(Cl)cc2)nc2cnccn12 |
| 563 | CC(=O)Nc1ccc(-c2nnc3n2CCCC3)cc1 |
| 1000 | CC(C)(C)c1noc(-c2cccnc2-n2cnc(C(=O)Nc3cccc(F)c3)c2)n1 |
| 745 | COc1ccc(OCC(=O)NS(=O)(=O)c2ccccc2)cc1 |
| 709 | CC(C)n1cc2cc(C(=O)N(C)CCc3ccncc3)sc2c1 |
| 788 | Cc1ccc(Cn2nc(C(=O)NCc3ccco3)ccc2=O)cc1 |
| 857 | O=C(c1cc2ccccc2[nH]1)N1CCCC(c2nnc(C(F)(F)F)o2)C1 (centres undefined) |
| 987 | CCn1cc(-c2nc(C)c(C(=O)N3CCc4ccccc4C3)s2)c2cccnc21 |
| 807 | O=C(NCCS(=O)(=O)N1CCN(c2ccccc2)CC1)c1ccc(Br)o1 |
| 711 | CNC(=O)c1cn2ccnc(-c3ccc(OC)cc3)c2n1 |

| RP-LC retention time [s] | Compound |
| --- | --- |
| 630 | CCC(=O)N1CCc2c(C(=O)N3CCOCC3)cccc21 |
| 1120 | CCc1ccc(-n2nc(CO)c(C(=O)NC3CCCC3)n2)cc1 |
| 780 | O=C(NC1CCCC1)C1CCN(C(=O)c2ncn3c2COC(c2ccc(Cl)cc2)C3)CC1 (centres undefined) |
| 660 | Cc1c(F)cccc1NC(=O)Nc1ccc2nncn2c1 |
| 650 | C=CCN(Cc1nc(-c2ccc(C)cc2)no1)C(=O)Nc1ccccc1C |
| 956 | Cc1ccc(CNC(=O)N(C)CCc2noc(COc3cccc(C)c3)n2)cc1 |
| 956 | CC1=C(C(=O)N(CC(=O)NCCc2ccccc2)c2ccc(Cl)cc2)SCCO1 |
| 1110 | COc1ccccc1N1CCN(c2cc(SCC(=O)Nc3ccccc3Cl)ncn2)CC1 |
| 973 | COc1ccc(C2C(C(=O)N3CCOCC3)=C(C)NC3=C2C(=O)CC(C)(C)C3)c(OC)c1 (centres undefined) |
| 954 | CCS(=O)(=O)Nc1ccc(-c2noc(-c3ccc4c(c3)OCO4)n2)cc1 |
| 675 | COc1ccc(-c2cc3c(=O)n(Cc4noc(CN5CCCC(C)C5)n4)ccn3n2)cc1 (centres undefined) |
| 570 | CCCCC(=O)Nc1ccc2nc(N3CCN(CCC#N)CC3)cc(C(=O)O)c2c1 |
| 572 | Cc1cc(NCCN(C)C)n2nc(-c3ccccc3)c(C)c2n1 |
| 732 | COc1ccccc1N1CCN(c2nc3ccc(C)cc3cc2-c2noc(C)n2)CC1 |
| 806 | Cc1cnn(Cc2nc(-c3ccc(NC(=O)c4ccco4)cc3)oc2C)c1 |
| 783 | Cc1cc(-c2ccc(S(=O)(=O)N3CCC(C(=O)NCCC(C)C)CC3)o2)n[nH]1 |
| 834 | C=Cc1ccc(CN2C(=O)N(c3cccc(F)c3)c3ncccc3S2(=O)=O)cc1 |
| 725 | CCc1ccc(-n2nnc(C(=O)NCCOC)c2-c2ccncc2)cc1 |
| 990 | COc1ccc(S(=O)(=O)N2CCc3c(c(-c4nnc(-c5ccccc5)o4)nn3C)C2)cc1Cl |
| 1120 | COc1cc(OC)c(NC(=O)N2c3ccccc3CC2c2nc(C3CC3)no2)cc1Cl (centres undefined) |

| Compound | RP-LC retention time [s] |
| --- | --- |
| C=CCCC1(C2=CCCCC2)C(=O)NC(=O)NC1=O | 804 |
| COc1cccc(S(=O)(=O)N2CCC3(C2)C(=O)Nc2ccc(OC)cc23)c1 (centres undefined) | 816 |
| COc1ccc2c(c1)C1(CCN(C(=O)c3cccc(Br)c3)C1)C(=O)N2 (centres undefined) | 754 |
